Measurements from patent US20150099802A1, “SELECTIVE TUMOR TREATMENT” (SUCAMPO AG, priority 2013, published 2015).

How the values were obtained:
Format in all cases: cell-based
[1] = tested on: Non-transfected colon adenocarcinoma LS174T cells; test: Growth of non-transfected LS174T colon adenocarcinoma cells (cell counting); details: 100 nM lubiprostone, fresh every 24 hr; cells counted at 0, 24, 48, 72 and 96 hr; non-transfected cells (low 15-PGDH); FIG. 1A
Procedure: (§1) Approximately half of colon cancers have a low level of NAD^+-linked 15-hydroxyprostaglandin dehydrogenase (NAD^+-15-PGDH). It was tested whether lubiprostone affected the growth of LS174T colon […] cells, which are known to have a low level of 15-PGDH. LS174T cells (ATCC #CL-188) were grown in Eagle's Minimum Essential Medium (ATCC #30-2003) containing 10% Fetal Bovine Serum (ATCC #30-2020) at 37° C. Human PGDH (hPGDH) was expressed in LS174T cells using pCMV6-Entry Vector. Both the human cDNA clone (#RC204160) and the Precision shuttle vector (#PS100001) were from OriGene Technologies, Rockville, Md. LS174T cells were transfected with hPGDH cDNA using Lipofectamine and selected using G418 (200 μg/ml). LS174T cells±hPGDH (+hPGDH or + vector alone, mock) were grown in 35 mm petri dishes (0.5×10^4 cells/dish) in triplicate. Confluent non-transfected cells were plated in 6 well dishes (1×10^4 cells/well) in triplicate. Cultures were grown to 40% confluence and were then treated with either 0.1% EtOH-0.01% DMSO or 100 nM lubiprostone. Media were changed and fresh EtOH-DMSO or lubiprostone was added every 24 hr. Cell growth was monitored by directly counting the cells in a randomly chosen field using a cell cytometer at 0, 24, 48, 72 and 96 hr.

[2] = tested on: hPGDH-transfected colon adenocarcinoma LS174T cells; test: Growth of hPGDH-transfected LS174T colon adenocarcinoma cells (cell counting); details: 100 nM lubiprostone, fresh every 24 hr, cells counted at 0-96 hr, FIG. 1B
Procedure: as §1

[3] = tested on: Mock-transfected colon adenocarcinoma LS174T cells; test: Growth of mock-transfected LS174T colon adenocarcinoma cells (cell counting); details: 100 nM lubiprostone, fresh every 24 hr; cells counted at 0-96 hr; vector-alone (mock) LS174T cells; FIG. 1C
Procedure: as §1

Structure (SMILES): CCCCC(F)(F)[C@@]1(O)CC[C@H]2[C@@H](CC(=O)[C@@H]2CCCCCCC(=O)O)O1 [lubiprostone, (−)-7-[(2R,4aR,5R,7aR)-2-(1,1-difluoropentyl)-2-hydroxy-6-oxooctahydrocyclopenta[b]pyran-5-yl]heptanoic acid]
- LS174T cell growth [1]: slowed or stopped
- lubiprostone inhibition of cell growth after transfection with 15-OH PGDH [2]: prevented lubiprostone inhibition of cell growth
- effect of mock transfection on lubiprostone inhibition of cell growth [3]: Mock transfection had no effect
